Earlier results in publication PMC12737490, “Beta Toxins Isolated from the Scorpion Centruroides hirsutipalpus (Scorpiones; Buthidae) Affect the Function of Sodium Channels of Mammals” (Toxins, 2025).

Key:
Nav1.2 = details: ref [34]; cited from earlier work
From the text: (§1) The Chirp9 peptide in the venom of C. hirsutipalpus has an abundance of 2.8%. It has an experimental mass of 7790.1 Da and a theoretical mass of 7790.9 Da. The sequence of Chirp9 (Figure 3B) shares 97% identity with the Cl13 toxin from the C. limpidus scorpion (UniProt C0HK69) and differs by only two amino acid substitutions: L5I and Q54A. These substitutions could modulate the toxic properties of the venom through structural alterations in the peptide that influence its interaction with target sites, possibly leading to increased potency or stability. The Cl13 toxin is found in C. limpidus ve ...

Nav1.4 = details: ref [34]; cited from earlier work
From the text: as §1

Nav1.5 = details: ref [34]; cited from earlier work
From the text: as §1

Nav1.6 = details: ref [34]; cited from earlier work
From the text: as §1

sodium channel = details: stated as reported earlier; no reference in the sentence; cited from earlier work
hNav1.6 channel = details: ref [13]; cited from earlier work
From the text: When comparing the sequence of the new toxins β-NaScTxs from C. hirsutipalpus with sequences from different scorpions (Figure 3A) using BLASTp version 2.11.0, it is shown that the sequence of the toxin Chirp7 is 100% identical to the sodium toxin Ct1a (UniProt accession P18926) from the C. tecomanus scorpion.

Substance | effect on sodium currents (Nav1.2) | effect on sodium currents (Nav1.4) | effect on sodium currents (Nav1.5) | effect on sodium currents (Nav1.6) | effect on sodium channel inactivation kinetics (sodium channel) | effect on hNav1.6 channel (hNav1.6 channel)
Cl13: beta toxin from the C. limpidus scorpion, 97% identity with Chirp9 | modifies sodium currents | modifies sodium currents | modifies sodium currents | modifies sodium currents | slow down the kinetics of sodium channel inactivation | 
Ct1a: sodium toxin Ct1a from the C. tecomanus scorpion, sequence 100% identical to Chirp7 |  |  |  |  |  | altering channel activation by lowering the action potential and decreasing the current amplitude
